According to patent US20210382058A1, “PATIENT SELECTION FOR TREATMENT OF MYC POSITIVE CANCERS WITH INDENOISOQUINOLINES” (Purdue Research Foundation, priority 2020, published 2021):
Like-named read-outs stand apart in the source and are kept apart here.

Tests used:
human topoisomerase I = target: T1, human topoisomerase I (Homo sapiens, UniProt P11387); conditions: relative topoisomerase I inhibition levels, previously determined, six levels (0 - 5, +++++ = 5); cited from earlier work
T1 sequence (P11387 1-765): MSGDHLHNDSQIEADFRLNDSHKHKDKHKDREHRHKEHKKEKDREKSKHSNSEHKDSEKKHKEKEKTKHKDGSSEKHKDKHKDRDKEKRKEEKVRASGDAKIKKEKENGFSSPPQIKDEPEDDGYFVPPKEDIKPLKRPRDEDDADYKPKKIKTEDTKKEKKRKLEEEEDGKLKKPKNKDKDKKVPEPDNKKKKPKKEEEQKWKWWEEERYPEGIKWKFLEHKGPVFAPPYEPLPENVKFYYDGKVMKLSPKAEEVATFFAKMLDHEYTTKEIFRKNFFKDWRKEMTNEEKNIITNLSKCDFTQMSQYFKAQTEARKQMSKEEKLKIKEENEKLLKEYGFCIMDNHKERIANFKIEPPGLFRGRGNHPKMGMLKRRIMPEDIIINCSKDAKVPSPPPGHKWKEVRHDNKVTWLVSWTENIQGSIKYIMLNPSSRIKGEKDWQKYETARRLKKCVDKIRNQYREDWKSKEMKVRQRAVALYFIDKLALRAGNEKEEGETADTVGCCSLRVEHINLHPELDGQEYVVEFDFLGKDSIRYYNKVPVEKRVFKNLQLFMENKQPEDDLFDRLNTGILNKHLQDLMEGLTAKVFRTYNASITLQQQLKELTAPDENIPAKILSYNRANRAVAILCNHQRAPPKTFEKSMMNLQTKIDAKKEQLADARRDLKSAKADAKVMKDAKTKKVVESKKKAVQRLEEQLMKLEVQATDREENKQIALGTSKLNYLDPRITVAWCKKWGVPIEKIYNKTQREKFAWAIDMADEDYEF

NCI-60 cancer cell lines = experiment: NCI-60 cancer cell line drug screen (GI50, MGM); format: cell-based, human; conditions: Homo sapiens; for GI50: read-out: Antiproliferative Activities [GI50 (μM)]
Protocol: Cancer cells were incubated with the test compounds at five concentrations ranging from 100 μM to 10 nM for 48 h. […] The approximate average of GI50 values across the entire panel of NCI-60 cancer cell lines for each compound was recorded as the MGM value.

[1] = tested on: MYC protein expression in MCF-7 breast cancer cells; experiment: Western blotting of MYC protein level in MCF-7 cells; format: cell-based, human; conditions: Homo sapiens, MCF7; western blotting, MCF-7 cells, 0.5, 1, 2, and 4 μM, 24 hours; read-out: MYC Inhibition
In short: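 Immunoblotting with ECL detection quantified MYC, with GAPDH (1:2000) as reference and anti-MYC at 1:1000.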

Question: For `CN(C)CCCn1c2c(c3ccc(N4CCNCC4)cc3c1=O)C(=O)c1ccccc1-2` [Compound 25], which “Top1 Inhibiton” value (human topoisomerase I) is on record?
Answer: ++ (medium inhibition, ++, MYC expression inhibited at 2.0 μM, or no clear dose-dependent MYC inhibition)

Question: What about the GI50 (NCI-60 cancer cell lines; 786-0, Renal Cancer, 786-0) of the same compound?
Answer: 1.34 µM

Question: And the GI50 (NCI-60 cancer cell lines; A549, Non-Small Cell Lung Cancer, A549/ATCC)?
Answer: 0.22 µM

Question: What about the GI50 (NCI-60 cancer cell lines; ACHN, Renal Cancer, ACHN) of the same compound?
Answer: 0.39 µM

Question: And the GI50 (NCI-60 cancer cell lines; BT-549, Breast Cancer, BT-549)?
Answer: 1.27 µM

Question: What about the GI50 (NCI-60 cancer cell lines; CAKI-1, Renal Cancer, CAKI-1) of the same compound?
Answer: 1.05 µM

Question: And the GI50 (NCI-60 cancer cell lines; CCRF-CEM, Leukemia, CCRF-CEM)?
Answer: 0.34 µM

Question: What about the GI50 (NCI-60 cancer cell lines; COLO 205, Colon Cancer, COLO 205) of the same compound?
Answer: 0.62 µM

Question: And the GI50 (NCI-60 cancer cell lines; DU-145, Prostate Cancer, DU-145)?
Answer: 0.33 µM

Question: And the GI50 (NCI-60 cancer cell lines; EKVX, Non-Small Cell Lung Cancer, EKVX)?
Answer: 1.18 µM

Question: What about the GI50 (NCI-60 cancer cell lines; HCC 2998, Colon Cancer, HCC-2998) of the same compound?
Answer: 0.35 µM

Question: What about the GI50 (NCI-60 cancer cell lines; HCT-15, Colon Cancer, HCT-15) of the same compound?
Answer: 0.73 µM

Question: And the GI50 (NCI-60 cancer cell lines; HL-60, Leukemia, HL-60(TB))?
Answer: 1.17 µM

Question: And the GI50 (NCI-60 cancer cell lines; HOP-62, Non-Small Cell Lung Cancer, HOP-62)?
Answer: 1.06 µM

Question: What about the GI50 (NCI-60 cancer cell lines; HOP-92, Non-Small Cell Lung Cancer, HOP-92) of the same compound?
Answer: 1.72 µM

Question: And the GI50 (NCI-60 cancer cell lines; HT-29, Colon Cancer, HT29)?
Answer: 0.35 µM

Question: And the GI50 (NCI-60 cancer cell lines; Hs-578T, Breast Cancer, HS 578T)?
Answer: 1.44 µM

Question: What about the GI50 (NCI-60 cancer cell lines; IGROV-1, Ovarian Cancer, IGROV1) of the same compound?
Answer: 0.84 µM

Question: What about the GI50 (NCI-60 cancer cell lines; K562, Leukemia, K-562) of the same compound?
Answer: 0.83 µM

Question: And the GI50 (NCI-60 cancer cell lines; KM12, Colon Cancer, KM12)?
Answer: 1.13 µM

Question: What about the GI50 (NCI-60 cancer cell lines; LOX IMVI, Melanoma, LOX IMVI) of the same compound?
Answer: 0.15 µM

Question: And the GI50 (NCI-60 cancer cell lines; Leukemia, SR)?
Answer: 0.31 µM

Question: And the GI50 (NCI-60 cancer cell lines; MCF7, Breast Cancer, MCF7)?
Answer: 0.3 µM

Question: And the GI50 (NCI-60 cancer cell lines; MDA-MB-231, Breast Cancer, MDA-MB-231/ATCC)?
Answer: 0.51 µM

Question: And the GI50 (NCI-60 cancer cell lines; MDA-MB-435, Melanoma, MDA-MB-435)?
Answer: 1.2 µM

Question: What about the GI50 (NCI-60 cancer cell lines; MDA-MB-468, Breast Cancer, MDA-MB-468) of the same compound?
Answer: 0.95 µM

Question: What about the GI50 (NCI-60 cancer cell lines; MOLT-4, Leukemia, MOLT-4) of the same compound?
Answer: 0.1 µM

Question: What about the GI50 (NCI-60 cancer cell lines; Malme-3M, Melanoma, MALME-3M) of the same compound?
Answer: 1.42 µM

Question: What about the GI50 (NCI-60 cancer cell lines; Melanoma, M14) of the same compound?
Answer: 1.05 µM

Question: And the GI50 (NCI-60 cancer cell lines; NCI-H23, Non-Small Cell Lung Cancer, NCI-H23)?
Answer: 1.05 µM

Question: What about the GI50 (NCI-60 cancer cell lines; NCI-H226, Non-Small Cell Lung Cancer, NCI-H226) of the same compound?
Answer: 0.56 µM

Question: What about the GI50 (NCI-60 cancer cell lines; NCI-H322M, Non-Small Cell Lung Cancer, NCI-H322M) of the same compound?
Answer: 0.45 µM

Question: What about the GI50 (NCI-60 cancer cell lines; NCI-H460, Non-Small Cell Lung Cancer, NCI-H460) of the same compound?
Answer: 0.31 µM

Question: And the GI50 (NCI-60 cancer cell lines; NCI-H522, Non-Small Cell Lung Cancer, NCI-H522)?
Answer: 0.96 µM

Question: What about the GI50 (NCI-60 cancer cell lines; OVCAR-3, Ovarian Cancer, OVCAR-3) of the same compound?
Answer: 1.05 µM

Question: And the GI50 (NCI-60 cancer cell lines; OVCAR-4, Ovarian Cancer, OVCAR-4)?
Answer: 0.34 µM

Question: And the GI50 (NCI-60 cancer cell lines; OVCAR-5, Ovarian Cancer, OVCAR-5)?
Answer: 2.12 µM

Question: And the GI50 (NCI-60 cancer cell lines; OVCAR-8, Ovarian Cancer, OVCAR-8)?
Answer: 0.4 µM

Question: What about the GI50 (NCI-60 cancer cell lines; Ovarian Cancer, NCl/ADR-RES) of the same compound?
Answer: 1.16 µM

Question: What about the GI50 (NCI-60 cancer cell lines; Prostate Cancer, PC-3) of the same compound?
Answer: 0.86 µM

Question: What about the GI50 (NCI-60 cancer cell lines; RPMI-8226, Leukemia, RPMI-8226) of the same compound?
Answer: 0.27 µM

Question: And the GI50 (NCI-60 cancer cell lines; RXF 393, Renal Cancer, RXF 393)?
Answer: 1.29 µM

Question: And the GI50 (NCI-60 cancer cell lines; Renal Cancer, U0-31)?
Answer: 0.77 µM

Question: What about the GI50 (NCI-60 cancer cell lines; SF-268, CNS Cancer, SF-268) of the same compound?
Answer: 0.95 µM

Question: What about the GI50 (NCI-60 cancer cell lines; SF-295, CNS Cancer, SF-295) of the same compound?
Answer: 1.16 µM

Question: What about the GI50 (NCI-60 cancer cell lines; SF-539, CNS Cancer, SF-539) of the same compound?
Answer: 1.61 µM

Question: And the GI50 (NCI-60 cancer cell lines; SK-MEL-2, Melanoma, SK-MEL-2)?
Answer: 1.71 µM

Question: And the GI50 (NCI-60 cancer cell lines; SK-MEL-5, Melanoma, SK-MEL-5)?
Answer: 0.7 µM

Question: And the GI50 (NCI-60 cancer cell lines; SK-MEL-28, Melanoma, SK-MEL-28)?
Answer: 1.53 µM

Question: And the GI50 (NCI-60 cancer cell lines; SK-OV-3, Ovarian Cancer, SK-OV-3)?
Answer: 1.05 µM

Question: What about the GI50 (NCI-60 cancer cell lines; SN12C, Renal Cancer, SN12C) of the same compound?
Answer: 0.33 µM

Question: What about the GI50 (NCI-60 cancer cell lines; SNB-19, CNS Cancer, SNB-19) of the same compound?
Answer: 0.54 µM

Question: What about the GI50 (NCI-60 cancer cell lines; SNB-75, CNS Cancer, SNB-75) of the same compound?
Answer: 0.95 µM

Question: And the GI50 (NCI-60 cancer cell lines; SW-620, Colon Cancer, SW-620)?
Answer: 0.16 µM

Question: And the GI50 (NCI-60 cancer cell lines; T47D, Breast Cancer, T-47D)?
Answer: 1.55 µM

Question: What about the GI50 (NCI-60 cancer cell lines; TK-10, Renal Cancer, TK-10) of the same compound?
Answer: 1.33 µM

Question: What about the GI50 (NCI-60 cancer cell lines; U-251, CNS Cancer, U251) of the same compound?
Answer: 0.64 µM

Question: And the GI50 (NCI-60 cancer cell lines; UACC-62, Melanoma, UACC-62)?
Answer: 1.03 µM

Question: What about the GI50 (NCI-60 cancer cell lines; UACC-257, Melanoma, UACC-257) of the same compound?
Answer: 1.69 µM

Question: What about the mean GI50 across NCI-60 panel (MGM) (NCI-60 cancer cell lines; average of GI50 values across the entire panel of NCI-60 cancer cell lines) of the same compound?
Answer: 0.72 µM

Question: What about the minimal effective concentration [1] of the same compound?
Answer: > 4 µM
